{"source": "patent EP1541166B1", "about": "“Preventing cell death using segments of neural thread proteins” (NYMOX CORPORATION, priority 2001, dated 2007)", "tested_on": "live tissue containing AD7C-NTP", "experiment": "Prevention/inhibition of AD7C-NTP-induced necrosis of live tissue by Harlil sequences injected with AD7C-NTP into rats, histopathology", "format": "in vivo", "conditions": "injected together with AD7C-NTP 100 ng/mL-10 µg/mL, 24 hours, compared to control samples injected with AD7C-NTP alone", "procedure": "AD7C-NTP was obtained as described above in Example 1.\nThe Harlil sequences NTP-1, NTP-3, and NTP-7 prepared in accordance with Example 2 above were used in this example.\nRecombinant AD7C-NTP samples 100 ng/mL-10 µg/mL were incubated at room temperature for 5 minutes to one hour with the aforementioned Harlil sequences and then injected into rats as described in Example 1.\nAlternatively, a solution of the Harlil sequence was made up in concentrations ranging from 1 microgram/mL to 1 milligram/mL. Solutions containing the recombinant AD7C-NTP also were made up as described above, without the addition of the Harlil sequence. The animals were injected with about 100 microliters of the AD7C-NTP solution, and with about 100 microliters of the Harlil solution.\nThe 24 individual foci of infiltration were excised, fixed in 10% formalin, embedded in paraffin, and stained and examined by standard histopathological methods.\nSimilar groups of control rats were injected with (1) AD7C-NTP alone as described in Example 1, (2) bovine serum albumin in saline, (3) normal human serum, and (4) physiological saline, and examined and sacrificed as above, with the excised foci of injection treated as above.", "data": [{"substance": "L H A R L C L A N F C G R N R V (LHARLCLANFCGRNRV) [NTP-1]", "values": [{"measurement": "reduction in tissue necrosis", "result": "over 95%"}]}]}
